*1 amine or outer side, *2 acyl side, *3 side chain or, on linkers, in order; H or OH if unused. Where a SMILES comes first, the peptide text is derived from it. Where no end group is shown, it is not given here. Cysteamide = C(CS[*:3])N[*:1]
How the values were obtained:
[1] = test system: HS-68, NIH 3T3, C2C12, COS-7 and CEM-SS cell lines; experiment: Cytotoxicity of MPG and MPG/DNA complex, MTT colorimetric assay; format: cell-based
Procedure: In order to generalize the use of MPG as an efficient delivery agent, the degree of cytotoxicity of MPG and of the MPG/DNA complex (charge ratio 5:1) were evaluated in several cell lines, including HS-68 and NIH 3T3 fibroblasts, C212 myoblasts, COS-7 kidney cells and human CEM-SS lymphoblasts. […] At much higher concentrations of 0.1 and 1 mM MPG, however, cell viability decreased by ˜25 and 60%, respectively.
The cytotoxicity of both MPG and MPG/plasmid (pRL-SV40 plasmid encoding reporter R.reniformis luciferase) complexes were investigated in the cell lines mentioned above. Cells grown in 35 mm diameter dishes to 75% confluency (0.5-1×10^6 cells per dish) were incubated with 0.1 μM to 1 mM MPG alone or complexed with DNA in a 5:1 ratio, in 1 ml DMEM for 3 h, after which 10% serum was added. Cell culture medium with MPG or MPG/plasmid was not changed, and cell proliferation was measured over 4 days. Cytotoxicity was evaluated by the MTT colorimetric assay, after removing cell culture medium and replacing it with PBS containing 5 mg/ml of MTT (Mosmann, T. (1983) J. Immunol. Methods, 65: 55-63). Results shown correspond to the averages of four separate experiments.
HS-68, NIH 3T3, C2C12, cos-7 and CEM-SS cell lines were incubated with 0.1 μM to 1 mM MPG alone (A) and with MPG complexed with DNA (pRL-SV40 plasmid encoding R.reniformis luciferase) in a peptide/DNA ratio of 5:1 (B), at 37° C. in DMEM supplemented with 10% FCS. The cytotoxicity of MPG alone and of MPG/DNA complexes was evaluated in MTT colorimetric assays and the results were expressed as percentages of dye reduction in cell lines incubated without MPG. The results correspond to averages of four separate experiments.

[2] = physiological conditions; cited from earlier work
[3] = Transmembrane ionic channel formation; set-up: species or system Xenopus laevis; conditions: voltage-triggered insertion
Description: They were characterized on Xenopus laevis oocyte plasma membranes and confirmed on planar lipid bilayers proving thus that channel formation is a true property of the peptide (FIG. 11). The insertion of the peptide in the membrane is voltage-triggered and the channel thus formed are selective for monovalent cations.

[4] = test system: mammalian fibroblasts, NIH 3T3 fibroblasts or murine L1210 lymphocytes; experiment: Cellular localization of lucifer yellow-linked peptides; format: cell-based; conditions: 3 min incubation at 10 μM
[5] = phosphatidylcholine or phosphatidylserine monolayers; cited from earlier work
[6] = test system: Acheloplasma laidlawii and Spiroplasma melliferum; conditions: concentrations much lower than minimal inhibitory concentrations; cited from earlier work
cardiac cell line H9C2 = experiment: Nuclear labeling of cells by fluorescein ODN-peptide conjugate; format: cell-based
Procedure: (§1) For the second ODN, the situation is clearer. This ODN conjugated 3′ with fluorescein and containing an SH group in 5′ for localization reasons has the sequence 5′-[…]-3′ (SEQ ID NO:31) and corresponds to the AS-βCOM antisense sequence complementary to conserved sequence region found in every mRNA encoding β subunit of Ca^2+ channels. After 5 min incubation at 37° C., more than 90% of the cells (cardiac cell line H9C2) were labeled in the nucleus while only 25% of the cells were labeled after 3 hours incubation when using the free ODN.

[7] = test system: β subunit of Ca^2+ channels; experiment: Ba2+ current density of treated H9C2 cells; format: cell-based; conditions: all labeled cells
Procedure: as §1

[8] = test system: HS68, NIH 3T3 and 293 cell lines; experiment: Toxicity of Pep-2 in cell lines (MTT staining); conditions: concentration of 1 mM

## CSCC[C@H](NC(=O)[C@@H](NC(=O)[C@H](CO)NC(=O)CNC(=O)[C@H](C)NC(=O)[C@H](C)NC(=O)CNC(=O)[C@H](CC(C)C)NC(=O)[C@H](Cc1ccccc1)NC(=O)CNC(=O)[C@H](CC(C)C)NC(=O)[C@H](Cc1ccccc1)NC(=O)[C@H](CC(C)C)NC(=O)[C@H](C)NC(=O)CNC(C)=O)[C@@H](C)O)C(=O)NCC(=O)N[C@@H](C)C(=O)N[C@@H](Cc1c[nH]c2ccccc12)C(=O)N[C@@H](CO)C(=O)N[C@@H](CCC(N)=O)C(=O)N1CCC[C@H]1C(=O)N[C@@H](CCCCN)C(=O)N[C@@H](CO)C(=O)N[C@@H](CCCCN)C(=O)N[C@@H](CCCNC(=N)N)C(=O)N[C@@H](CCCCN)C(=O)N[C@H](C(=O)NCCS)C(C)C [MPG] (Ac-GALFLGFLGAAGSTMGAWSQPKSKRKV-Cysteamide)
[1]; MPG alone 0.1 mM
  decrease of cell viability: ~25%
[1]; MPG alone 1 mM
  decrease of cell viability: ~60%
[1]; MPG alone up to 10 μM, 48 h at 37° C.
  cytotoxic effects: did not induce any cytotoxic effects
[1]; MPG complexed with pRL-SV40 at 5:1 ratio, 0.1 mM MPG
  cytotoxicity: no cytotoxicity could be observed
[1]; MPG complexed with pRL-SV40 at 5:1 ratio, 1 mM MPG
  decrease of cell viability: ~40%
[2]
  solubility: highly soluble

## MGLGLHLLVLAAALQGAKKKRKV (Ac-MGLGLHLLVLAAALQGAKKKRKV; not fully specified (C-terminus); printed as MGLGLHLLVLAAALQGAKKKRKV) [[2]]
[3]
  channel formation: induce formation of transmembrane ionic channels
[4]
  final localization of lucifer yellow-linked peptide: localize in the nuclei of the cells
[5]
  surface pressure increase: ~15 mN/m
[6]
  effect on membrane potential and transmembrane pH gradient: decrease

## 5′-ACCAGCCTTCCGATCCACCAGTCATT-3′ (DNA, backbone not given here; 3' fluorescein conjugate, 5' thiol group, peptide conjugated) [second ODN]
Cardiac cell line H9C2; ODN conjugated to peptide, 5 min incubation at 37° C.
  cells labeled in the nucleus: more than 90%
Cardiac cell line H9C2; free ODN, 3 hours incubation
  cells labeled: 25%
[7]
  reduction of Ba^2+ current density: ≈ 7 fold

## CC(=O)N[C@@H](Cc1ccc(O)cc1)C(=O)NCC(=O)N[C@@H](Cc1ccccc1)C(=O)N[C@@H](CCCCN)C(=O)N[C@@H](CCCCN)C(=O)N[C@@H](CCCNC(=N)N)C(=O)N[C@@H](CCCNC(=N)N)C(=O)N[C@@H](Cc1c[nH]c2ccccc12)C(=O)N[C@@H](CO)C(=O)N[C@@H](CCC(N)=O)C(=O)N1CCC[C@H]1C(=O)N[C@@H](CCCCN)C(=O)N[C@@H](CCC(=O)O)C(=O)N[C@H](C(=O)N[C@@H](Cc1c[nH]c2ccccc12)C(=O)N[C@@H](CCC(=O)O)C(=O)N[C@H](C(=O)N[C@@H](Cc1c[nH]c2ccccc12)C(=O)N[C@@H](Cc1c[nH]c2ccccc12)C(=O)N[C@H](C(=O)N[C@@H](CCC(=O)O)C(=O)NCCS)[C@@H](C)O)[C@@H](C)O)[C@@H](C)O [Pep-1-cya] (Ac-YGFKKRRWSQPKETWETWWTE-Cysteamide)
[8]
  decrease of cell viability: about 10%
